“And” between values parts separate entries of the source, which are not always exact repeats. Identical values can stand only once. Marks after values point to notes of the source that are not given here. Square brackets hold non-standard residues; d marks the D form. Peptide text beside a SMILES is read from it. * marks the point of attachment. dPhe(4-NHCONH2) = NC(=O)Nc1ccc(C[C@@H](N)C(=O)O)cc1; Dihydroorotyl(S) = O=C1C[C@@H](C(=O)*)NC(=O)N1; dPhe(4-Cl) = N[C@H](Cc1ccc(Cl)cc1)C(=O)O; Phe(4-NH2) = Nc1ccc(C[C@H](N)C(=O)O)cc1; d2Nal = N[C@H](Cc1ccc2ccccc2c1)C(=O)O; Lys(iPr) = CC(C)NCCCC[C@H](N)C(=O)O; d3Pal = N[C@H](Cc1cccnc1)C(=O)O
Assay: CS21 safety: treatment-emergent adverse events (MedDRA SOC/PT), crude incidence, also by subgroup
Assay type: in vivo
Method: The safety variables for this study were assessed on the following: the frequency and severity of adverse events (AEs); the presence of clinically significant changes in laboratory parameters (clinical chemistry, hematology and urinalysis); changes in electrocardiograms (ECGs) and vital signs; changes detected by physical examination; and body weight.
An AE was therefore any unfavorable or unintended sign (including an abnormal laboratory finding), symptom or disease temporally associated with the use of the product, whether or not related to the IMP.
An adverse drug reaction (ADR) was defined as an AE evaluated by the investigator as being probably or possibly related to treatment with the IMP.
AEs were graded according to the National Cancer Institute (NCI) Common Terminology Criteria for Adverse Events (CTCAE). In accordance with the CTCAE criteria, AEs were rated on a five-point scale corresponding to mild, moderate, severe, life-threatening or disabling and death. For those AEs not described in the CTCAE, a separate five-point rating scale was used for rating of the intensity of AEs as follows below:
Safety parameters were evaluated for all patients included in the ITT analysis set, comprising all 610 randomized patients who received at least one dose of study medication. All safety tables include four columns: the three treatment groups described separately, and the pooled degarelix group.
Adverse events were regarded as ‘treatment-emergent’ if they occurred in the time interval from initial dosing to end-of-study. Adverse events were considered ‘pre-treatment’ if they occurred between screening and the initial injections of IMP. As described above, all AEs were classified according to MedDRA (version 10.0) system organ class (SOC), sorted alphabetically, and by preferred term (PT), in decreasing frequency of occurrence. Treatment-emergent AEs were expressed in terms of intensity (using NCI CTCAE) and relationship to study drug.
Using the results from the summary of clinical efficacy (SCE) and summary of clinical safety (SCS) findings, different patient subgroups were analyzed. Subgroup distinguishers included race (white, black, and other), age (<65 years, […], and >75 years), weight (<70 kg, ≥70−<90 kg, and ≥90 kg), body mass index (BMI) (≤20, >20 to 30, and >30 kg/m^2)), region (North-America, Western Europe, Central and Eastern Europe and Other), and stage of prostate cancer (e.g., localized, locally advanced, and metastatic).

[1] = degarelix Total (pooled), leuprolide 7.5 mg
[2] = degarelix Total (pooled), leuprolide 7.5 mg, listed as degarelix
[3] = degarelix pooled, LUPRON DEPOT 7.5 mg
[4] = degarelix pooled, LUPRON DEPOT 7.5 mg, listed as degarelix
[5] = pooled degarelix, leuprolide 7.5 mg

With `CC(=O)N[C@H](Cc1ccc2ccccc2c1)C(=O)N[C@H](Cc1ccc(Cl)cc1)C(=O)N[C@H](Cc1cccnc1)C(=O)N[C@@H](CO)C(=O)N[C@@H](Cc1ccc(NC(=O)[C@@H]2CC(=O)NC(=O)N2)cc1)C(=O)N[C@H](Cc1ccc(NC(N)=O)cc1)C(=O)N[C@@H](CC(C)C)C(=O)N[C@@H](CCCCNC(C)C)C(=O)N1CCC[C@H]1C(=O)N[C@H](C)C(N)=O` [Degarelix, D-Alaninamide, N-acetyl-3-(2-naphthalenyl)-D-alanyl-4-chloro-D-phenylalanyl-3-(3-pyridinyl)-D-alanyl-L-seryl-4-[[[(4S)-hexahydro-2,6-dioxo-4-pyrimidinyl]carbonyl]amino]-L phenylalanyl-4-[(aminocarbonyl)amino]-D-phenylalanyl-L leucyl-N6-(1-methylethyl)-L-lysyl-L-prolyl] (Ac-[d2Nal][dPhe(4-Cl)][d3Pal]S[Phe(4-NH2)](Dihydroorotyl(S))[dPhe(4-NHCONH2)]L[Lys(iPr)]P[dA]-NH2) the “Ear & labyrinth disorders, % of patients” value [1] was “( 2%)”, the “Endocrine disorders, % of patients” value [1] was “( 1%)” and the “Eye disorders, % of patients” value [1] was “( 2%)”. For the same compound, the “Fatigue, % of patients” value [1] was “( 5%)”, the “Gastrointestinal disorders, % of patients” value [1] was “(17%)” and the “General disorders & administration site conditions, % of patients” value [1] was “(47%)”. The “Hepatobiliary disorders, % of patients” value [1] was “(<1%)”, the “Hot flush, % of patients” value [1] was “(26%)” and the “Hypercholesterolaemia, % of patients” value [1] was “( 5%)”. The “Hypertension, % of patients” value [1] was “( 6%)”, the “Immune system disorders, % of patients” value [1] was “(<1%)” and the “Infections & infestations, % of patients” value [1] was “(20%)”. For the same compound, the “Injection site pain, % of patients” value [1] was “(29%)”, the “Injury, poisoning & procedural complications, % of patients” value [1] was “( 5%)” and the “Metabolism & nutrition disorders, % of patients” value [1] was “(10%)”. The “Nausea, % of patients” value [1] was “( 5%)”, the “Neoplasms benign, malignant & unspecified, % of patients” value [1] was “( 5%)” and the “Nervous system disorders, % of patients” value [1] was “(12%)”. For the same compound, the “Psychiatric disorders, % of patients” value [1] was “( 8%)”, the “Renal & urinary disorders, % of patients” value [1] was “(13%)” and the “Respiratory, thoracic & mediastinal disorders, % of patients” value [1] was “(10%)”. The “Serious AEs, % of patients” value [1] was 11%, the “Serious AEs, E events” value [1] was 67 and the “Serious AEs, N patients” value [1] was 45. For the same compound, the “Skin & subcutaneous tissue disorders, % of patients” value [1] was “(10%)”, the “Vascular disorders, % of patients” value [1] was “(33%)” and the “Weight increased, % of patients” value [1] was “(10%)”. The “Arthralgia, % of patients” value [2] was 4% and 4.2%, the “Back pain, % of patients” value [2] was 6% and the “Cardiac disorders, % of patients” value [2] was 9%. For the same compound, the “Gastrointestinal disorders, % of patients” value [2] was 17%, the “General disorders & administration site conditions, % of patients” value [2] was 47% and the “Infections & infestations, % of patients” value [2] was 20%. The “Injection site pain, % of patients” value [2] was 29%, the “Investigations, % of patients” value [2] was 27% and the “Musculoskeletal & connective tissue disorders, % of patients” value [2] was 17%. For the same compound, the “Renal & urinary disorders, % of patients” value [2] was 13%, the “Reproductive system & breast disorders, % of patients” value [2] was 5% and the “Treatment-emergent adverse events (all AEs), % of patients” value [2] was 81%. The “Urinary tract infection, % of patients” value [2] was 3%, the “Vascular disorders, % of patients” value [2] was 33% and the “Myocardial Infarction (PT), % of patients” value (degarelix combined, LUPRON DEPOT 7.5 mg) was 0.5%. The “Deep vein thrombosis, N patients” value (degarelix pooled) was 0, the “Libido decreased, N patients” value (degarelix pooled) was 0 and the “Cardiac murmur, % of patients” value [3] was 0%. For the same compound, the “Chest pain, % of patients” value [3] was “(<1%)*”, the “Cystitis noninfective, % of patients” value [3] was 0% and the “Deep vein thrombosis, % of patients” value [3] was 0%. The “Erectile dysfunction, % of patients” value [3] was “(1%)*”, the “Libido decreased, % of patients” value [3] was 0% and the “Musculoskeletal stiffness, % of patients” value [3] was 0%. The “Myocardial ischaemia, % of patients” value [3] was “(<1%)*”, the “Oedema peripheral, % of patients” value [3] was “(2%)*” and the “Urinary retention, % of patients” value [3] was “(1%)*”. The “Chest pain, % of patients” value [4] was 0.5%, the “Erectile dysfunction, % of patients” value [4] was 1% and 1.5% and the “Oedema peripheral, % of patients” value [4] was 2%. For the same compound, the “Urinary retention, % of patients” value [4] was 1.2%, the “discontinuations due to injection site adverse events” value (degarelix s.c., 12 months) was under 1% and the “immediate onset hypersensitivity reactions” value (in vivo) was “no immediate onset hypersensitivity reactions”. The “ADRs: general disorders and administration site conditions including injection-site reactions, % of patients” value (pooled degarelix) was 42%, the “Gynaecomastia, prostatitis or testicular atrophy (each), % of patients” value (pooled degarelix) was 2% and the “Hyperhidrosis, % of patients” value (pooled degarelix) was under 1%. The “Night sweats, % of patients” value (pooled degarelix) was 1%, the “Pelvic pain, % of patients” value (pooled degarelix) was under 1% and the “Sweating disorders, % of patients” value (pooled degarelix) was “approximately 1%”. The “Testicular pain, % of patients” value (pooled degarelix) was under 1%, the “incidence of all other injection site preferred terms” value (pooled degarelix) was at most 0.5 per 100 injections and the “incidence of injection site erythema” value (pooled degarelix) was 1.9 per 100 injections. The “incidence of injection site pain” value (pooled degarelix) was 2.9 per 100 injections, the “incidence of treatment-emergent injection site reactions” value (pooled degarelix) was 4.4 per 100 injections and the “injection site reactions which led to withdrawal, % of patients” value (pooled degarelix) was 1.2%. The “patients with SAEs that led to withdrawal, number” value (pooled degarelix) was 17, the “Hot flushes reported as ADR, % of patients” value [5] was 25% and the “SAEs: cardiac disorders, % of patients” value [5] was 2%. For the same compound, the “SAEs: renal and urinary disorders, % of patients” value [5] was 2%.
